# Data: patent US6342368B1, “WD-40-derived peptides and uses thereof” (The Board of Trustees of the Leland Stanford Junior …, priority 1994, dated 2002)
# “Also recorded” adds a separate entry of the source.
# Assays:
# PKC [1] = experiment: PKC autophosphorylation; assay type: biochemical, rat; conditions: peptide 10 μM; absence of PKC activators
# Protocol: Rat brain PKC (˜10 nM) was incubated with mild agitation in a final volume of 250 μl of overlay buffer, as in Example 1 either with anti-βPKC pseudosubstrate antibodies (1:10 dilution, Life Technologies, Gaithersburg, Md.) or with the indicated peptide (10 μM). Where indicated, PS (50 μg/ml), DG (0.8 μg/ml) and CaCl2 (1 mM) were also added. The amount of autophosphorylation was determined after 2 hours for the reaction with the anti-pseudosubstrate antibodies, or after 15 minutes for the other samples. 50 μl of a buffer comprised of 20 mM Tris-HCl (pH 7.5), 20 mM MgCl2, 20 μM ATP and 5 μci/ml [γ-^32P]ATP. The mixture was incubated for 15 minutes at room temperature and the reaction was stopped by adding 60 μl sample buffer (see Example 9). The samples were then boiled for 10 minutes, loaded onto a 10% SDS-PAGE mini gel and electrophoresed. The gel was fixed with 50% methanol and 10% acetic acid for 1 hour, and the autophosphorylation of PKC was determined by autoradiography.
# The results in FIG. 8 show PKC autophosphorylation in the presence of DG, PS, and calcium (lane 1), in the presence of EGTA (lane 2), in the presence of anti-βPKC pseudosubstrate antibodies (diluted 1:10 in 20 mM Tris-HCl; lane 3), in the presence of peptide rVI (SEQ ID NO:7; 10 μM; lane 4), in the presence of peptide I (SEQ ID NO:1; 10 μM; lane 5), or in the presence of control peptide (SEQ ID NO:9; 10 μM; lane 6).
# Xenopus oocytes = experiment: PKC-mediated Xenopus oocyte maturation (germinal vesicle breakdown, GVBD) after peptide microinjection; assay type: cell-based; conditions: for plateau % GVBD (fraction of oocytes reaching maturation) following insulin exposure: peptide 50 μM, 50 nl microinjected, 20 h time course
# Protocol: Exposure to insulin induces maturation in Xenopus oocytes via a PKC-dependent pathway (Smith, et al., 1992). The maturation response may be quantified by monitoring the appearance of a white spot in the animal hemisphere of the oocyte, indicating germinal vesicle breakdown (GVBD) and maturation. To assess the effects of RACK1 WD-40-derived peptides on insulin-induced PKC-mediated maturation, 50 nl of a 20 mM NaCl solution containing the indicated peptides [peptide I (SEQ ID NO:1; ●), peptide rVI (SEQ ID NO:7; ▪), or injection solution (□)] (peptides at 50 μM) were microinjected into Xenopus oocytes. […] One hour following the peptide injections, the oocytes were exposed to a solution containing insulin (8.25 μg/ml) for 2 minutes (t=0). 10-15 oocytes were used for each sample.
# The data, representative of three independent experiments, are expressed as the percent of oocytes with GVBD following insulin exposure and are plotted as a function of time in FIG. 5.
# βPKC = molecular target: T1, βPKC (Rattus norvegicus, UniProt P68403); experiment: Sensitivity of βPKC to Arg-C endopeptidase (nicking); assay type: biochemical; conditions: low activators: 2.5 μg/ml PS and 50 μM CaCl2; peptide 10 μM
# T1 construct: All the solutions contained 5 nM rat brain PKC; from tissue; host or cells: rat brain
# Description: Upon activation of PKC, a pseudosubstrate autoinhibitory sequence at the N-terminus of the molecule dissociates from the catalytic site and becomes sensitive to endopeptidase Arg-C (Orr, et al.). In the absence of PKC activators, exposure of the 80 kDa βPKC to endopeptidase Arg-C has no effect on the enzyme (see FIG. 7, lane 1). In the presence of the PKC activators PS, DG and calcium, however, exposure of βPKC to Arg-C results in a “nicking” of the PKC (i.e. limited proteolysis generating a 78 kDa fragment and several small fragments (see FIG. 7, lane 2)). Continued exposure to Arg-C results in the disappearance of βPKC (Orr, et al.). The present experiment tests whether peptides derived from the WD-40 region of RACK1 alter the sensitivity of βPKC to endopeptidase Arg-C.
# The methods used to assay Arg-C sensitivity are a modification of methods described by Orr, et al. Rat brain PKC (˜5 nM) was incubated at room temperature in 500 μl of 20 mM Tris-HCl buffer (pH 7.5) alone or with Arg-C (5 units/ml) in the presence or absence of the indicated peptides (final concentration 10 μM or as indicated), PS, DG, and calcium (as indicated). 50 μl aliquots were removed into 20 μl of sample buffer during the reaction as indicated (samples in all the lanes were incubated for 30 minutes , except lanes 5, and 6, which were incubated for 5 and 15 minutes, respectively). The samples were boiled for 10 minutes at 80° C. and loaded onto 8% SDS-PAGE. βPKC was detected by Western blot analysis using anti-βPKC antibodies as described in Examples 6 and 8.
# PKC was incubated for the indicated time alone (lane 1) or in the presence of Arg-C (lanes 2-9), with DG (0.8 μg/ml), PS (50 μg/ml) and CaCl2 (1 mM; lane 2), with PS (50 μg/ml) and CaCl2 (1 mM; lane 3), with PS (2.5 μg/ml) and CaCl2 (50 μM; lane 4); with PS (2.5 μg/ml), CaCl2 (50 μM) and with either peptide rVI (SEQ ID NO:7; 10 μM; lanes 5-7), control peptide (SEQ ID NO:9; lane 8) or with peptide I (SEQ ID NO:1; lane 9).
# [2] = test system: PKC binding to recombinant RACK1; experiment: Overlay / overlay-extraction assay: inhibition of PKC binding to recombinant RACK1 by peptides; set-up: species or system rat; conditions: 10 μM peptide preincubated with PKC
# Protocol: The variation in the overlay protocol consisted of incubating the putative binding peptides with a mixture of PKC isozymes for 15 minutes at room temperature before the mixture was used to contact the nitrocellulose strips containing immobilized RACK1.
# Nitrocellulose strips containing immobilized RACK1, that had been contacted with a solution containing a mixture of PKC isozymes, were washed and the area corresponding to the 36 kDa (RACK1-containing) band was cut out. The pieces (containing PKC/RACK1 complexes) were incubated with sample buffer for 10 minutes at 80° C. The sample buffer and the nitrocellulose pieces were then placed in wells in the PAGE gel and subjected to SDS-PAGE to elute the bound proteins. The gel was blotted onto nitrocellulose and a Western blot analysis was carried out using the mixture of antibodies (specific for PKC α, β, γ, δ, ε and ζ isozymes) described in Example 1 part B. Bound antibodies were detected by ^125I-protein A.
# Peptides derived from or homologous to WD-40 repeats of RACK1 were tested for their ability to inhibit PKC binding to recombinant RACK1. Binding of PKC to RACK1 was carried out using a variation of the overlay procedure described in Example 3 part B. In the experimental samples, peptides were incubated with a solution containing a mixture of rat brain PKC isozymes (˜10 nM each) for 15 minutes at room temperature.
# Following completion of the modified overlay protocol, the samples were subjected to the overlay-extraction protocol detailed in part B, above.
# The results in FIG. 3 show the binding of PKC to RACK1, carried out without (lane 1) or with (lanes 2-4) a preincubation of peptides with PKC. […] Peptide I caused an 81±6% inhibition of PKC binding to recombinant RACK1 as compared with binding in the absence of added peptide (n=3). Lanes 3 and 4 show PKC binding following a preincubation with 10 μM peptide rIII (SEQ ID NO:4) and 10 μM peptide rVI (SEQ ID NO:7), respectively. […] The results shown are representative of three independent experiments.
# PKC [3] = experiment: Histone type IIIs phosphorylation by PKC; assay type: biochemical; conditions: absence of PS, DG and calcium; peptide 10 μM
# Protocol: Histone type IIIs (Sigma Chemical Company, St. Louis, Mo.) was phosphorylated by PKC (˜10 nM) in the absence (lane 1) and presence of peptide rVI (10 μM) (lanes 2 and 3) and in the presence and absence of DG (0.8 μg/ml), PS (50 μg/ml) and CaCl2 (1 mM) (lane 3). The results are expressed as percentage of control that is the amount of Histone phosphorylation by PKC in the presence of DG (0.8 μg/ml), PS (50 μg/ml) and CaCl2 (1 mM). The results are the average ± SEM of two independent experiments. PKC was first incubated with the peptide rVI (10 μM) for 15 minutes in overlay buffer as described above. Histone type IIIs (40 μg/ml) was added in Tris-HCl (20 mM), MgCl2 (20 mM), ATP (20 μM) and ([γ-^32P]ATP (5 μci/ml) with or without PS (50 μg/ml), DG (0.8 μg/ml) and CaCl2 (1 mM). Histone phosphorylation was determined by autoradiography as above.
# δ and εPKC isozymes = experiment: PKC isozyme translocation and degradation in cardiac myocytes; assay type: cell-based, rat
# Protocol: In cardiac myocytes, norepinephrine (NE, 2 μM) causes translocation of δ and εPKC isozymes from the cytosolic to the particulate fraction. […] This peptide-induced translocation was followed by degradation of δ and εPKC isozymes.
# RACK1 = molecular target: T2, RACK1 (Rattus norvegicus, UniProt P63245); experiment: Overlay assay: concentration dependence of PKC binding to recombinant RACK1; conditions: βPKC in the presence of other PKC isozymes, n=3
# T2 construct: an open reading frame of 317 amino acids from the putative translation start site of pRACK1; made in house; host or cells: TB1 E. coli (RACK1); PKC mixture from rat brain
# Protocol: Purified recombinant RACK1 protein (100-250 μg per lane, produced as detailed in Example 2) was subjected to SDS/PAGE and blotted onto nitrocellulose membranes (Ausubel). The nitrocellulose membranes were cut into strips, which were incubated for 0.5 hr in overlay buffer (Example 1) in the presence or absence of a mixture of PKC isozymes (α, β, γ, δ, ε and ζ, ˜10 nM each final concentration) and PKC activators (60 μg/ml phosphatidylserine (PS), 2 μg/ml diacylglycerol (DG), and 1 mM CaCl2). Unbound material was removed by five washes, 5-min each, in overlay wash buffer. Where indicated, PKC activators were present during the incubation of PKC with the nitrocellulose strips. The conditions for each sample and corresponding results are presented in part D below.
# PKC bound to RACK1 immobilized on nitrocellulose strips was detected as follows. […]
# The concentration dependence of PKC binding to RACK1 was characterized with βPKC , since this isozyme is a major component of the PKC mixture used for the overlay assay. The mean half maximal binding was ˜0.375 nM, and maximal binding was ˜4 nM (n=3; values reflect binding of βPKC isozyme in the presence of other PKC isozymes and was determined by scanning autoradiograms in the linear range of detection, as described in Mochly-Rosen, et al., (1991).
# [4] = molecular target: mixture of rat brain PKC isozymes (α, β, γ, δ, ε and ζ) (rat); experiment: cell-based or functional assay
# [5] = molecular target: T3, βPKC (rat brain protein kinase C, β isozyme) (rat, UniProt P68403 2-671); experiment: slot-blot PKC overlay of immobilized peptide, with PS, DG and calcium, anti-βPKC detection
# T3 construct: also called beta PKC; βPKC isozyme
# [6] = molecular target: mixture of rat brain PKC isozymes (α, β, γ, δ, ε and ζ) (rat); experiment: overlay plus overlay-extraction assay; 10 µM peptide preincubated with PKC isozyme mixture (~10 nM each); immobilized RACK1
# [7] = peptide 50 μM microinjected, insulin 8.25 μg/ml
# [8] = peptide introduced into cardiac myocytes
molecule,measurement,setting,value
control peptide: control peptide (SEQ ID NO:9) (LKGKIL) [reference compound],induction of PKC autophosphorylation (in words),PKC [1],No autophosphorylation; also recorded: Neither peptide I nor control peptide induced PKC autophosphorylation
same,delay to onset of maturation after exposure to insulin,Xenopus oocytes; [7],4 to 5 h
same,time to reach GVBD plateau after insulin exposure,Xenopus oocytes; [7],10 to 12 h
same,plateau % GVBD (fraction of oocytes reaching maturation) following insulin exposure,Xenopus oocytes; insulin 8.25 μg/ml,85-90%
same,nicking of βPKC by Arg-C (78 kDa fragment),βPKC,did not result in appreciable nicking activity; also recorded: did not occur
peptide rIII: seven amino acid peptide identical to a segment of RACK1 WD-40 repeat III (DVLSVAF),inhibition of PKC binding to RACK1 (in words),[2],inhibit the binding of PKC to RACK1; also recorded: somewhat more effective than peptide rVI
same,effect on insulin-induced oocyte maturation (in words),Xenopus oocytes; at 50 and 500 μM,enhances insulin-induced oocyte maturation
same,plateau % GVBD (fraction of oocytes reaching maturation) following insulin exposure,Xenopus oocytes; insulin 8.25 μg/ml,~100%
same,effect on insulin-induced oocyte maturation (in words),"Xenopus oocytes; peptide microinjected, insulin",potentiated the effects of insulin on oocyte maturation
same,induction of PKC-mediated histone phosphorylation,PKC [3],similarly induced histone phosphorylation
same,NE-induced translocation of δ and εPKC,δ and εPKC isozymes; norepinephrine 2 μM,further enhanced
same,degradation of PKC isozymes,δ and εPKC isozymes; [8],followed by degradation of these activated isozymes; also recorded: accelerated the degradation of PKC
same,translocation / distribution of δ and εPKC isozymes in the absence of hormone stimulation,δ and εPKC isozymes; [8],caused an immediate translocation
same,nicking of βPKC by Arg-C (78 kDa fragment),βPKC,appearance of the 78 kDa nicked PKC fragment
"βPKC: β isozyme of protein kinase C, major component of the rat brain PKC mixture",maximal binding to RACK1,RACK1,~4 nM
same,Kd,RACK1; read-out: mean half maximal binding to RACK1,~0.375 nM
DIINALCF [peptide rVI],PKC autophosphorylation in the absence of PKC activators,[4],> 80%
LKGKIL [control peptide],binding result,[5],no binding
KGDYEKILVALCGGN [peptide I],% inhibition of PKC binding to recombinant RACK1,[6],81%
